This is an account of results in US20260356814A1, “INDOLINE DERIVATIVES AS SEROTONERGIC AGENTS USEFUL FOR THE TREATMENT OF DISORDERS RELATED THERETO” (MINDSET PHARMA INC., priority 2022, published 2026).

The target of assay [1] is T1, human 5-HT1A receptor (Homo sapiens, UniProt P08908).
T1 construct: expressed in transfected cells; host or cells: CHO (HTR1A&Ga15-CHO)
T1 sequence (P08908 1-422): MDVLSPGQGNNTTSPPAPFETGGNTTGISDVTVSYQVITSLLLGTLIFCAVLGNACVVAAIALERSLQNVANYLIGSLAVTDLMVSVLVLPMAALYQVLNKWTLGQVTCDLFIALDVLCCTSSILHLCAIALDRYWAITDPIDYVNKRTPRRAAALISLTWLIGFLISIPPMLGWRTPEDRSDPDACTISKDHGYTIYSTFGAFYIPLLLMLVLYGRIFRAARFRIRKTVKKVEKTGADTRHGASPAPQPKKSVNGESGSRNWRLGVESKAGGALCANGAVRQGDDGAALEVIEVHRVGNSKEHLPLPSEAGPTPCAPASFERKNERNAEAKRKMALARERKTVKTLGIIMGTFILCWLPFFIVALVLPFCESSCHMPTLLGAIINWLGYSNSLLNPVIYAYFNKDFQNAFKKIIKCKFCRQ
The assay is described as follows: Human 5-HT1A: Radioligand binding assay ([3H]-8-Hydroxy-DPAT). The conditions noted are these: [3H]-8-Hydroxy-DPAT displacement, 27° C., 90 min, pH 7.4; read-out: h5-HT1A, IC50. The method, then: The objective of this study was to evaluate the binding properties of test compounds on 5-hydroxytryptamine receptor 1A (5-HT1A).
• 1. The assay buffer was prepared following the table below.
• 2. 8 doses of reference and test compounds were prepared starting from 10 mM stock solution as required by 5-fold serial dilutions with 100% (v/v) DMSO. • 3. UniFilter-96 GF/B plate was pretreated: • i. 50 μl/well of 0.5% (v/v) PEI was added to UniFilter-96 GF/B plates. The plates were sealed and incubated at 4° C. for 3 hrs. • ii. After incubation, the plates were washed 3 times with ice-cold wash buffer (50 mM Tris, pH7.4). • 4. Assay plate was prepared: • i. Cell membrane was diluted with assay buffer and 100 μl/well was added to 96 round well plates to reach a concentration of 20 μg/well. • ii. 8 concentrations of reference or test compounds were prepared and 50 μl/well was added to 96 round deep well plates. • iii. [3H]-8-Hydroxy-DPAT was diluted with assay buffer to 2 nM (4X final concentration) and 50 μl/well was added to 96 round well plates. • 5. The plate was centrifuged at 1000 rpm for 30 secs and then agitated at 600 rpm, R.T. for 5 min. • 6. The plates were sealed and the plate was incubated at 27° C. for 90 min. • 7. The incubation was stopped by vacuum filtration onto GF/B filter plates followed by 4 times washing with ice-cold wash buffer (50 mM Tris, pH7.4). • 8. The plates were dried at 37° C. for 45 min. • 9. The filter plates were sealed and 40 μl/well of scintillation cocktail was added. • 10. The plate was read by using a Microbeta2 microplate counter.
• 1. For reference and test compounds, the results were expressed as % Inhibition, using the normalization equation: N=100−100×(U−C2)/(C1−C2), where U is the unknown value, C1 is the average of high controls, and C2 is the average of low controls. • 2. The IC50 was determined by fitting percentage of inhibition as a […] of compound concentrations with Hill equation using XLfit.

For assay [2], the target named is T1, human 5-HT1A receptor. In words: Human 5-HT1A: Functional FLIPR assay (agonist mode). The assay is classed as cell-based. The conditions noted are these: for RFU@10 μM: @10 μM (head), footnote: curve fitting with activation (%) @ 10 mM with RFU, RFU=Fmax−Fmin; for EC50: FLIPR calcium, agonist mode, HTR1A&Gα15-CHO cells, ND: not detected, read-out: h5-HT1A, EC50. The method, then: The potential excitatory effects of compounds targeting on 5-hydroxytryptamine receptor 1A (5-HT1A) under agonist mode was assessed.
HTR1A&Ga15-CHO cells were cultured in DMEM/F12 medium containing 10% dialyzed FBS, 1x penicillin-streptomycin and 600 μg/mL Hygromycin B. The cells were passaged about three times a week, maintained between ~30% to ~90% confluence.
• 1. The cell culture medium (DMEM/F12 medium containing 10% dialyzed FBS, 1x penicillin-streptomycin and 600 μg/mL Hygromycin B), TrypLE™ Express and DPBS was warmed to R.T. in advance. • 2. The cell culture medium was removed from flask. Washed cells with DPBS. • 3. 1 mL TrypLE™ Express was added to the flask, mixed well by gentle shaking and cells were incubated at 37° C. for a few minutes. • 4. The cells were checked for morphological change under microscope, the digestion was stopped by adding 2 mL cell culture medium to the flask when most of cells turned to round. • 5. The cell suspension was transferred into a 15 mL centrifuge tube, and then centrifuged at 1,200 rpm for 5 minutes. • 6. The supernatant was removed. The cell pellet were resuspended with 2 mL cell culture medium. • 7. The cell density were counted using cell counter. Only cells with >85% viability were used for the assay. • 8. Cells were diluted to 4×10^5/mL with cell culture medium. • 9. 30 μL/well cell suspensions were added into a 384-well cell plate (The cell density was 12,000 cells/well). • 10. The cell plate was incubated overnight at 37° C., 5% (v/v) CO2.
• 1. On the day of experiments, culture medium was removed from the cell plate. • 2. 10 μL of assay buffer (20 mM HEPES, in 1×HBSS, pH 7.4) was added to each well of the cell plate. • 3. 2× dye solution was prepared following the manufacture's instruction of the FLIPR® Calcium 6 assay kit: • i. The dye was diluted with assay buffer. • ii. probenecid was added to the final concentration of 5 mM. • iii. Vortexed vigorously for 1-2 minutes, adjust pH to 7.4. • 4. 10 μL of 2×dye solution was added to each well of the cell plate. • 5. The cell plate was placed on plate shaker, followed by shaking at 600 rpm for 2 minutes. • 6. The plate was incubated at 37° C. for 2 hours followed by an additional 15-minute incubation at 25° C. 3.4 Prepare 3×compounds. • 1. Serotonin was prepared to the concentration of 10 mM with DMSO, 3-folds serial dilutions were performed with DMSO. • 2. Prepare the test compound to the concentration of 10 mM with DMSO, preform 3-folds serial dilutions with DMSO. • 3. The compounds were added to a 384-well compound source plate. • 4. 90 nL/well of serial diluted compounds were transferred from source plate to a 384-well compound plate by using an Echo. • 5. 30 μL/well of assay buffer was added to the compound plate. • 6. The plate was mixed on-plate shaker for 2 minutes. 3.5 FLIPR assay • 1. After the cells incubate with dye solution, the cell plate, compound plate containing 3×compounds and FLIPR tips were placed into FLIPR. • 2. 10 μL of 3×compounds were transferred from the compound plate to the cell plate by FLIPR. • 3. The plate was read for 160 sec with 1 sec interval to obtain the data of agonist mode.
• 1. The normalized fluorescence reading (RFU) was calculated as shown below, wherein Fmax and Fmin stand for maximum and minimum of calcium signal during defined time window:
RFU=Fmax−Fmin • 2. EC50 was calculated by fitting RFU against log of compound concentrations with Hill equation using XLfit.

SMILES strings stand for the structures.

In general, IC50 refers to the concentration at which inhibition is half-maximal. Consider `[2H]C([2H])([2H])N1CCC[C@@H]1C([2H])([2H])N1CCc2ccccc21` [(R)-I-1, (R)-1-((1-(Methyl-d3)pyrrolidin-2-yl)methyl-d2) indoline], for which the IC50 on human 5-HT1A receptor [1] came to 444 nM. In addition, the “RFU@10 μM” value on human 5-HT1A receptor [2] amounted to 84 RFU.

Regarding `[2H]C([2H])([2H])N(CCN1CCc2ccc(OC)cc21)C([2H])([2H])[2H]` [Compound I-70, 2-(6-Methoxyindolin-1-yl)-N, N-bis(methyl-d3) ethan-1-amine], the IC50 on human 5-HT1A receptor [1] is 193 nM. In addition, on human 5-HT1A receptor [2], the “RFU@10 μM” value is 161 RFU.

A word on the EC50: it is the concentration needed to bring the measured effect to its halfway point. Take `[2H]C([2H])([2H])N1CCC[C@@H]1C([2H])([2H])N1CCc2ccc(OC)cc21` [(R)-I-57, (R)-6-Methoxy-1-((1-(methyl-d3)pyrrolidin-2-yl)methyl-d2) indoline]: the IC50 at human 5-HT1A receptor [1] turned out to be 10 nM. On human 5-HT1A receptor [2], the “RFU@10 μM” value amounted to 2081 RFU and the EC50 stood at 1260 nM.

In the case of `COc1cccc2c1N(C[C@H]1CCCN1C)CC2` [(R)-I-46, (R)-7-Methoxy-1-((1-methylpyrrolidin-2-yl)methyl) indoline], the IC50 on human 5-HT1A receptor [1] stood at 211 nM. Further, the “RFU@10 μM” value on human 5-HT1A receptor [2] is 373 RFU.

Take `[2H]C([2H])([2H])N(CCN1CCc2ccccc21)C([2H])([2H])[2H]` [Compound I-71, 2-(Indolin-1-yl)-N,N-bis(methyl-d3) ethan-1-amine]: at human 5-HT1A receptor [1], the IC50 came out at 1620 nM. Also, the “RFU@10 μM” value at human 5-HT1A receptor [2] was determined as 145 RFU.

In the case of `COc1cccc2c1CCN2C[C@H]1CCCN1C` [(R)-I-47, (R)-4-Methoxy-1-((1-methylpyrrolidin-2-yl)methyl) indoline], on human 5-HT1A receptor [1], the IC50 stood at 15300 nM. For the same molecule, the “RFU@10 μM” value on human 5-HT1A receptor [2] came out at 70 RFU.

`COc1cc2c(cc1OC)N(C[C@H]1CCCN1C)CC2` [(R)-I-34, (R)-5,6-dimethoxy-1-((1-methylpyrrolidin-2-yl)methyl) indoline]: the IC50 at human 5-HT1A receptor [1] came out at 7750 nM. Also, the “RFU@10 μM” value at human 5-HT1A receptor [2] is recorded as 155 RFU.

Take `COc1ccc2c(c1)N(C[C@H]1CCCN1)CC2` [(R)-I-59, (R)-6-Methoxy-1-(pyrrolidin-2-ylmethyl) indoline]: the IC50 on human 5-HT1A receptor [1] worked out at 85 nM. Moreover, the “RFU@10 μM” value on human 5-HT1A receptor [2] is recorded as 521 RFU.

As for `[2H]C([2H])([2H])Oc1ccc2c(c1)N(C([2H])([2H])[C@H]1CCCN1C([2H])([2H])[2H])CC2` [(R)-I-28, (R)-6-(Methoxy-d3)-1-((1-(methyl-d3)pyrrolidin-2-yl)methyl-d2) indoline], the IC50 on human 5-HT1A receptor [1] was found to be 5.04 nM. In addition, at human 5-HT1A receptor [2], the “RFU@10 μM” value is listed as 1981 RFU and the EC50 came out at 2340 nM.

Take `COc1ccc2c(c1)N(C[C@H]1CCCN1C)CC2` [(R)-I-58, (R)-6-Methoxy-1-((1-methylpyrrolidin-2-yl)methyl) indoline]: on human 5-HT1A receptor [1], the IC50 is 13 nM. At human 5-HT1A receptor [2], the “RFU@10 μM” value is reported as 2444 RFU and the EC50 worked out at 2040 nM.
